Measurements: ChEMBL document CHEMBL5233260, “Diverse chemical space of indoleamine-2,3-dioxygenase 1 (Ido1) inhibitors” (Eur J Med Chem, 2021)
Several values for one entry are separate records, joined by “and”; a condition that tells them apart may be missing. Identical values can stand only once.

Experiments:
[1] = target: T1, Indoleamine 2,3-dioxygenase 1 (Homo sapiens, UniProt P14902); assay: Inhibition of human IDO1 using L-tryptophan as substrate by methylene blue dye based spectrometric method
Target sequence in this assay (P14902 whole entry): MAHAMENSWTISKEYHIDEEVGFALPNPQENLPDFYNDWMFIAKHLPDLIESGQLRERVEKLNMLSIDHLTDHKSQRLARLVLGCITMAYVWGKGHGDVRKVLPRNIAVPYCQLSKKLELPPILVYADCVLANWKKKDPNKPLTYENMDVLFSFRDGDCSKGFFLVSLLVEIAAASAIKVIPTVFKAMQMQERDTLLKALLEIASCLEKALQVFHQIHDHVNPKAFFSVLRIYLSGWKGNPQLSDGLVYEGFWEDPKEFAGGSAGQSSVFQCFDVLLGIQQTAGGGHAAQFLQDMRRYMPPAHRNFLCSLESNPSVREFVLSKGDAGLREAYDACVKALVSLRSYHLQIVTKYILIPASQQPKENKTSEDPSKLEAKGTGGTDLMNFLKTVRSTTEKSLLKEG

[2] = target: T2, Indoleamine 2,3-dioxygenase 1 (Mus musculus, UniProt P28776); assay: Inhibition of mouse IDO1 using L-tryptophan as substrate by methylene blue dye based analysis
T2 sequence (P28776 whole entry): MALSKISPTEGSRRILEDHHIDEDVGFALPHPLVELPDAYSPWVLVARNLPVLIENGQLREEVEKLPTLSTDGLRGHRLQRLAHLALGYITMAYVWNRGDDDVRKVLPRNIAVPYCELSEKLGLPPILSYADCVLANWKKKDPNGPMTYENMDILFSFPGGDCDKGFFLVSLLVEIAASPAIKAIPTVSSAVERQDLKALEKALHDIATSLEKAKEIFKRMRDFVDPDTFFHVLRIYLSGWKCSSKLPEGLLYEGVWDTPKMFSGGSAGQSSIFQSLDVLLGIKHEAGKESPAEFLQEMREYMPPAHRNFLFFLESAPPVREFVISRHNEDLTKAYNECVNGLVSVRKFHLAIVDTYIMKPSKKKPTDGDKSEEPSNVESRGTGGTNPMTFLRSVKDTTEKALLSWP

[3] = target: T1, Indoleamine 2,3-dioxygenase 1; assay: Inhibition of IDO1 in human HeLa cells; assay type: cell-based
Target sequence in this assay (P14902 whole entry): as the sequence (P14902 whole entry) above

[4] = target: T1, Indoleamine 2,3-dioxygenase 1; assay: Inhibition of human IDO1
Target sequence in this assay (P14902 whole entry): as above

[5] = target: T1, Indoleamine 2,3-dioxygenase 1; assay: Inhibition of IDO1 (unknown origin) at 10 uM relative to control
Target sequence in this assay (P14902 whole entry, looked up): as the sequence (P14902 whole entry) above

[6] = target: T1, Indoleamine 2,3-dioxygenase 1; assay: Inhibition of human IDO1 expressed in Escherichia coli using L-tryptophan as substrate incubated for 30 mins by methylene blue dye based microplate reader analysis
Target sequence in this assay (P14902 whole entry): as above

[7] = target: T1, Indoleamine 2,3-dioxygenase 1; assay: Inhibition of IDO1 (unknown origin)
Target sequence in this assay (P14902 whole entry): as above

[8] = target: T1, Indoleamine 2,3-dioxygenase 1; assay: Inhibition of IDO1 (unknown origin) at 1 uM relative to control
Target sequence in this assay (P14902 whole entry, looked up): as the sequence (P14902 whole entry) above

[9] = target: T1, Indoleamine 2,3-dioxygenase 1; assay: Binding affinity to IDO1 (unknown origin) assessed as inhibition constant
Target sequence in this assay (P14902 whole entry): as above

[10] = target: T2, Indoleamine 2,3-dioxygenase 1; assay: Inhibition of IDO1 in mouse LLTC cell line; assay type: cell-based
[11] = target: T1, Indoleamine 2,3-dioxygenase 1; assay: Inhibition of IDO1 (unknown origin) at 1 mM relative to control
Target sequence in this assay (P14902 whole entry, looked up): as the sequence (P14902 whole entry) above

[12] = target: T1, Indoleamine 2,3-dioxygenase 1; assay: Inhibition of IDO1 in HEK293 cells at 20 uM incubated for 24 hrs by LC-MS/MS analysis relative to control; assay type: cell-based
Target sequence in this assay (P14902 whole entry, looked up): as the sequence (P14902 whole entry) above

[13] = target: T1, Indoleamine 2,3-dioxygenase 1; assay: Inhibition of human recombinant N-terminal his6-tagged IDO1 expressed in Escherichia coli BL21 using L-tryptophan as substrate incubated for 1 hr by methylene blue dye based UV-Vis spectrophotometer analysis
[14] = target: T1, Indoleamine 2,3-dioxygenase 1; assay: Inhibition of IDO1 in human MDA-MB-231 cells; assay type: cell-based
[15] = target: T1, Indoleamine 2,3-dioxygenase 1; assay: Inhibition of IDO1 in human HeLa cells assessed as inhibition of kynurenine production incubated for 30 mins by microplate reader based analysis; assay type: cell-based
[16] = target: T1, Indoleamine 2,3-dioxygenase 1; assay: Inhibition of IDO1 in human A549 cells by ELISA assay; assay type: cell-based
[17] = target: T1, Indoleamine 2,3-dioxygenase 1; assay: Inhibition of human IDO1 using L-tryptophan as substrate incubated for 1 hr by absorbance based analysis
[18] = target: T1, Indoleamine 2,3-dioxygenase 1; assay: Inhibition of human IDO1 incubated for 30 mins by microplate reader based analysis
[19] = target: T1, Indoleamine 2,3-dioxygenase 1; assay: Inhibition of human recombinant IDO1 using L-tryptophan as substrate incubated for 10 mins by absorbance based analysis

Question: With `c1cncc(-c2n[nH]c3ccccc23)c1` as the molecule, how does the IC50 [1] read?
Answer: 9520 nM

Question: Which IC50 [2] does the source give for `CN(C)c1ccc(Nc2ccc3c[n+]4ccccc4cc3c2)cc1` here?
Answer: > 50000 nM

Question: What does the source list for `N#Cc1ccc(NC(=O)Nc2ccc(S(=O)(=O)NNc3ccc(Br)cc3)cc2)cc1`?
Answer: EC50 [3]: 51 nM; IC50 [4]: 199 nM

Question: With `c1ccc(-c2[nH]nc3ccccc23)cc1` as the molecule, how does the IC50 [1] read?
Answer: 19600 nM

Question: For `O[C@H]1CCCC[C@@H]1CNc1cc(Br)cc2[nH]ncc12`, which inhibition [5] is on record?
Answer: > 70%

Question: `COC1=CC(=O)c2sc(C)c(CO)c2C1=O` was tested. Which IC50 [6] did it give?
Answer: 1000 nM

Question: For `CS[C@@]1(C)C(=O)N2[C@H]3N(c4ccc5oc6cc(=O)c(N)c(C(=O)O)c-6nc5c4C(=O)O)c4ccccc4[C@@]3(c3c[nH]c4ccccc34)[C@H](O)[C@]2(SC)C(=O)N1C`, which IC50 [7] is on record?
Answer: 2000 nM

Question: How did the IC50 [7] turn out when `COC1=C(OC)C(=O)C(CCC(C)C)=C(C)C1=O` was run?
Answer: 2800 nM

Question: With `COC(=O)[C@H]1CCCN1C[C@@H](O)c1c(OC)cc2c(c1O)C(=O)c1cc(O)c(C)cc1C2=O` as the molecule, how does the IC50 [7] read?
Answer: 500 nM

Question: Which IC50 [6] does the source give for `COC(=O)c1c(C)oc2c1C(=O)C(OC)=CC2=O` here?
Answer: 7200 nM

Question: With `N#Cc1ccc(Cc2cn(Cc3cnc4scc(-c5ccc(Br)cc5)n34)nn2)cc1` as the molecule, how does the inhibition [8] read?
Answer: 75%

Question: With `NC(Cc1csc2ccccc12)C(=O)O` (configuration not stated) as the molecule, how does the Ki [9] read?
Answer: 7000 nM

Question: Which IC50 [2] does the source give for `Cc1ccc(Nc2ccc3c[n+]4ccccc4cc3c2)cc1` here?
Answer: 17000 nM

Question: For `COC1=C(OC)C(=O)C(Nc2ccccc2)=C(C)C1=O`, which IC50 [7] is on record?
Answer: 700 nM

Question: Which IC50 [2] does the source give for `COc1ccc(Nc2ccc3c[n+]4ccccc4cc3c2)cc1` here?
Answer: > 66000 nM

Question: How did the IC50 [7] turn out when `Brc1cc(Nc2ccc3nonc3c2)c2cn[nH]c2c1` was run?
Answer: 74000 nM

Question: `COC1=CC(=O)c2c(nc(COc3ccc([N+](=O)[O-])cc3)n2C)C1=O` was tested. Which IC50 [6] did it give?
Answer: 100 nM

Question: `CCc1cc2c(cc1C)C(=O)C1=C(C2=O)C(OC)(C(=O)OC)OC1(C)C` (configuration not stated) was tested. Which Ki [9] did it give?
Answer: 140 nM

Question: Which inhibition [8] does the source give for `O=C(NCc1cnc2scc(-c3ccc(Br)cc3)n12)n1cc(C2CC2)nn1` here?
Answer: 70%

Question: How did the Ki [9] turn out when `COC(=O)/C1=C/c2c([nH]c3ccccc23)/C(C(=O)OC)=C\c2c1[nH]c1ccccc21` [CAULERPIN] was run?
Answer: 2000 nM

Question: How did the Ki [9] turn out when `CC12CCCc3coc(c31)C(=O)c1cc3c(cc12)C(=O)C1C(NCCS1(=O)=O)C3=O` (configuration not stated) was run?
Answer: 25 nM

Question: Which IC50 [2] does the source give for `Clc1cccc(Nc2ccc3c[n+]4ccccc4cc3c2)c1` here?
Answer: 39600 nM

Question: For `COc1ccc2c(c1)C(=O)C1=C(C2=O)[C@@H](C)O[C@@H](CC(=O)O)C1`, which IC50 [10] is on record?
Answer: 800 nM

Question: `Clc1ccc(-c2n[nH]c3ccccc23)cc1Cl` was tested. Which IC50 [1] did it give?
Answer: 5460 nM

Question: For `Nc1oc2cnccc2c1Nc1ccc(F)c(Cl)c1`, which IC50 [7] is on record?
Answer: < 200 nM

Question: With `O=C(O)C[C@H]1CNC(=O)c2cc(Br)c(Br)n21` as the molecule, how does the inhibition [11] read?
Answer: 30%

Question: With `O/N=C(\Nc1ccc(F)c(Br)c1)c1cccc2cn[nH]c12` as the molecule, how does the inhibition [12] read?
Answer: 80%

Question: How did the IC50 [7] turn out when `COc1c(C(C)=O)c(C)cc2cc3c(c(O)c12)C(=O)C(C)(C)C(=O)C3(C)C` was run?
Answer: 1180 nM

Question: For `NS(=O)(=O)NCCNC(=O)c1n[nH]nc1/C(=N/O)Nc1ccc(F)c(Br)c1`, which IC50 [13] is on record?
Answer: 92 nM and 28 nM

Question: What about the IC50 [14] of the same molecule?
Answer: 28 nM

Question: How did the IC50 [7] turn out when `COC1=C(OC)C(=O)C(Nc2ccccc2)=CC1=O` was run?
Answer: 600 nM

Question: With `COC1=C(OC)C(=O)C(Nc2cccc(NC(=O)Nc3ccccc3)c2)=C(C)C1=O` as the molecule, how does the IC50 [7] read?
Answer: 400 nM

Question: For `COC1=CC(=O)c2c(c(CO)c(C)n2C)C1=O`, which IC50 [6] is on record?
Answer: 10000 nM

Question: Which IC50 [10] does the source give for `COc1cccc2c1C(=O)C1=C(C[C@H](Cn3cc(-c4ccccc4)nn3)O[C@@H]1C)C2=O` here?
Answer: 6000 nM

Question: How did the IC50 [2] turn out when `c1ccc(Nc2ccc3c[n+]4ccccc4cc3c2)cc1` was run?
Answer: 560 nM

Question: For `O=C(NNc1ccccc1)c1n[nH]c2ccccc12`, which IC50 [1] is on record?
Answer: 720 nM

Question: `Fc1ccc(Nc2ccc3c[n+]4ccccc4cc3c2)cc1` was tested. Which IC50 [2] did it give?
Answer: 530 nM

Question: `O=C(Cc1ccccc1)Nc1ccc(CCOc2ccccc2-c2cnc[nH]2)cc1` was tested. Which IC50 [7] did it give?
Answer: < 1000 nM

Question: How did the IC50 [7] turn out when `CCc1c(OC)cc2c(c1O)C(=O)C[C@@H](OC)[C@@H]2O` was run?
Answer: 6360 nM

Question: For `CNC(=O)[C@H]1[C@@H](OC)C2(O)c3ccccc3NC(=O)[C@@]2(C(=O)N[C@@H](CCC(=O)OC)C(=O)C=C(C)C)N1C` (some centres not stated), which IC50 [7] is on record?
Answer: 10100 nM

Question: `C=C1CC[C@@H]2[C@](C)(CO)[C@H](O)CC[C@@]2(C)[C@@H]1C/C=C1/C(=O)OC[C@H]1O` [ANDROGRAPHOLIDE] was tested. Which IC50 [7] did it give?
Answer: 160000 nM

Question: For `COC1=CC(=O)c2c(O)c3c(c4c2[C@]12CC(=O)C[C@H]2[C@@]1(C[C@H](O)[C@H](O)CO1)O4)C[C@](C)(O)[C@H](O)C3`, which IC50 [7] is on record?
Answer: 32300 nM

Question: With `Cc1cc(Cl)nc2onc(N)c12` as the molecule, how does the IC50 [15] read?
Answer: < 1000 nM

Question: With `CC(=O)NCCc1c(C(=O)c2ccccc2[N+](=O)[O-])[nH]c2ccc(Cl)cc12` as the molecule, how does the IC50 [16] read?
Answer: 740 nM

Question: `COC1=CC(=O)c2c(c(CO)nn2C)C1=O` was tested. Which IC50 [6] did it give?
Answer: 1000 nM

Question: `COC1=CC(=O)c2c(oc(C)c2CO)C1=O` was tested. Which IC50 [6] did it give?
Answer: 500 nM

Question: With `COC1=C(OC)C(=O)C(Nc2ccc(Cl)cc2)=CC1=O` as the molecule, how does the IC50 [7] read?
Answer: 270 nM

Question: How did the IC50 [2] turn out when `Clc1ccc(Nc2ccc3c[n+]4ccccc4cc3c2)cc1` was run?
Answer: 510 nM

Question: `CCN(c1ncc(C2(C(=O)O)CCC2)cc1Nc1ccc(Cl)cc1)C1CCOCC1` was tested. Which IC50 [15] did it give?
Answer: 100 nM

Question: Which Ki [9] does the source give for `NC(Cc1coc2ccccc12)C(=O)O` (configuration not stated) here?
Answer: 70000 nM

Question: With `CCc1c(C)cc2c(c1O)C(=O)C1=C(C2=O)C(C)(C)OC1(O)C(=O)OC` (configuration not stated) as the molecule, how does the Ki [9] read?
Answer: 210 nM

Question: For `O=C(NC(c1cccc(Br)c1)n1ccnc1)c1ccc([N+](=O)[O-])cc1` (configuration not stated), which IC50 [17] is on record?
Answer: 810 nM

Question: Which Ki [9] does the source give for `CC12CCCc3coc(c31)C(=O)c1cc3c(cc12)C(=O)C1NCCS(=O)(=O)C1C3=O` (configuration not stated) here?
Answer: 86 nM

Question: `COc1cc(O)c2c(c1)C(=O)C1=C(C2=O)[C@@H](C)O[C@@H](C)C1` was tested. Which IC50 [18] did it give?
Answer: 5000 nM

Question: For `Cc1ccc(S(=O)(=O)NNC(=O)c2n[nH]c3ccccc23)cc1`, which IC50 [1] is on record?
Answer: 17000 nM

Question: How did the IC50 [19] turn out when `COc1nsc2c1C(=O)c1c(O)cccc1C2=O` was run?
Answer: 71 nM
